Assay results from PMC7503767, “Alkoxyamines Designed as Potential Drugs against Plasmodium and Schistosoma Parasites” (Molecules, 2020).
Read-outs that look alike come from different tables or passages of the source. Marks after values point to notes of the source that are not given here.

Tests used:
[1] = tested on: Adult S. mansoni; assay: In vitro antischistosomal activity on adult worms; type: cell-based, Schistosoma mansoni; details: for S. mansoni Mean Survival Time / Time for the death of 100% worms: adult S. mansoni, observation up to 8 h; for S. mansoni Mean Survival Time: single dose 100 µg/mL; for Mean (±SD) survival time – Adult S. mansoni / Time for the death of 100% worms: 100 µg/mL; for Mean (±SD) survival time – Adult S. mansoni: observation up to 8 h (Table S1)
Outline: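 NMRI-strain adult worms, perfused from hamsters 42–47 days post-infection, held in RPMI 1640 (25 mM Hepes) with Tween 80/DMSO vehicle at 37 °C, 5% CO2 and exposed to 100 µg/mL drug, in duplicate. Moving worms counted hourly up to 8 h; no contraction over 30 s scored dead. Mean survival time from Kaplan–Meier analysis.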

[2] = tested on: P. falciparum F32-TEM (artemisinin-sensitive strain); assay: Standard chemosensitivity assay (SYBR Green I), F32-TEM; type: cell-based, Plasmodium falciparum
Method: (§1) F32-ART5, an artemisinin-resistant strain and F32-TEM, an artemisinin-sensitive strain, were obtained from the parental clone F32-Tanzania, respectively under regular drug pressure cycles of increasing artemisinin concentrations for 5 years and without any artemisinin pressure. After these drug pressure cycles allowing selection of the F32-ART5 strain, regular drug pressures were performed to maintain its phenotype. […] Briefly, parasites were cultured in RPMI 1640 (Fisher Scientific, Waltham, Illkirch-Graffenstaden, France) supplemented with 5% type AB human serum (Etablissement français du Sang, Toulouse, France) and adjusted at a parasitemia of 1% and 2% hematocrit with type O human at 37 °C and 5% CO2. Parasite development was daily monitored by Giemsa staining.
(§2) Briefly, for the determination of IC50 values, the chemosensitivity assay was carried out in 96-well culture plates on D-sorbitol ring-stage synchronized parasites and antiplasmodial activities were evaluated using the SYBR Green I method. Drug testing was performed in triplicates in a dose range of 5 to 7 concentrations. […] Parasites were left to proliferate with the given compounds for 48 h at 37 °C and 5% CO2. After this period, pellets were washed 3 times in sterile PBS prior to putting the plates at −20 °C overnight to lyse all red blood cells. The following day, the plates were thawed at room temperature, 100 µL of each well was transferred into a black 96-well plate to which another 100 µL of 2× PBS-diluted SYBR Green I (Sigma-Aldrich) was added and left to incubate for 2 h at room temperature prior to reading the plates on BioTek FL× 800 Microplate Fluorescence Reader (λexcitation = 485 nm, λemission = 528 nm).
(§3) IC50 values were determined using GraphPad Prism by drawing the curve % inhibition vs. [Drug] and using a four-parameter dose–response curve with the following equation: Y=Bottom+ Top−Bottom/1+x^Hill Slope/IC50Hill Slope

[3] = tested on: P. falciparum F32-ART5 (artemisinin-resistant strain); assay: Standard chemosensitivity assay (SYBR Green I), F32-ART5; type: cell-based, Plasmodium falciparum; details: ^1 n = 1, ^2 n = 2
Method: as §1, §2, §3

[4] = tested on: P. falciparum chloroquine-resistant strain FcB1-Columbia; assay: Antiplasmodial screen at 10 µM and chemosensitivity assay (SYBR Green I), FcB1-Columbia; type: cell-based, Plasmodium falciparum
[5] = Cytotoxicity assay (MTT); details: African green monkey
Method: (§4) Vero cells were cultured in MEM (Dutscher, Brumath, France) supplemented with 10% fetal bovine serum, 1× non-essential amino acids, 100 U/mL, 100 µg/mL penicillin/streptomycin, and 2 mM L-glutamine at 37 °C in a humidified 5% CO2 atmosphere. […] At this time, each well was microscope-examined for detection of possible precipitate formation prior to remove the supernatant by flicking the plate. 100 µL of a 0.5 mg/mL PBS-dissolved MTT tetrazolium (stock solution at 5 mg/mL) was then added to each well [48]. The plates were then incubated for 1 h at 37 °C and 5% CO2 prior to removing the supernatant and adding 100 µL of DMSO. Plates were gently shaken to dissolve formazan crystals resulting from the MTT tetrazolium reduction by living cells and read at 570 nm with BioTek µQuant Microplate Spectrophotometer.

[6] = tested on: Vero cells; assay: Cytotoxicity assay (MTT); details: for Selectivity Index: ratio cytotoxicity (Vero)/activity on Plasmodium; for IC50: read-out: Cytotoxicity Mean IC50, Vero cell lines, 48 h, MTT
Method: as §4

[7] = design: method as in PMID 23051106, doi:10.1039/c2py20447a; details: cited from earlier work
[8] = Homolysis of the NO–C bond measured by EPR; details: for half-life: tert-butylbenzene
Method: Homolysis rate constants kd’ were measured by EPR and estimated using Equation (1) as reported many times in the literature. Further, Ea and kd were estimated using Equation (2). (1) ln([nitroxide]∞−[nitroxide]t/[nitroxide]∞)=−kd·t (2) Ea=−RT ln([…] kd′ )

[9] = Plasmodium falciparum, F32, 48 h, read-out: P. falciparum Strains Mean IC50, F32-TEM, 48 h, ^1 n = 1, ^2 n = 2
[10] = Plasmodium falciparum, F32, 48 h, read-out: P. falciparum Strains Mean IC50, F32-ART5, 48 h
[11] = Plasmodium falciparum, FCB1, read-out: IC50 on P. falciparum, FcB1-Columbia strain
[12] = read-out: IC50 on P. falciparum, FcB1-Columbia strain
[13] = Cytotoxicity Mean IC50, Vero cell lines, 48 h, MTT
[14] = Plasmodium falciparum, FcB1-Columbia strain, read-out: IC50 on P. falciparum
[15] = 48 h, ^1 n = 1, ^2 n = 2, read-out: P. falciparum Strains Mean IC50, F32-TEM
[16] = 48 h, read-out: P. falciparum Strains Mean IC50, F32-ART5
[17] = FcB1-Columbia strain, read-out: IC50 on P. falciparum

SMILES | S. mansoni Mean Survival Time [1] [h] | IC50 [2, 9] [nM] | IC50 [3, 10] [nM] | IC50 at 48 h [5, 13] [nM] | Selectivity Index [6] | Mean (±SD) survival time – Adult S. mansoni [1] [h] | Time for the death of 100% worms [1] [h] | IC50 [6] [nM] | also measured
CCOP(=O)(OCC)[C@@H](N(O[C@@H](C)c1ccncc1)C(C)(C)C)C(C)(C)C (relative stereo) [(RS/SR)-1a] | 1.2 ± 0.1 | 7600 | 11000 | 28000 ± 29000 | 3 | – | – | – | IC50 [4, 11]: 3800 nM; IC50 [4, 12]: > 3000 nM; T1/2 in vitro at 37 °C ([7]; aqueous medium): 2 to 4 days; T1/2 in vitro at 37 °C ([7]; tert-butylbenzene): 17 days
CCOP(=O)(OCC)[C@@H](N(O[C@H](C)c1ccncc1)C(C)(C)C)C(C)(C)C (relative stereo) [(RR/SS)-1a] | >8 | 15000 | 16000 | 17000 ± 7000 | 1 | > 8 | > 8 | – | T1/2 in vitro at 37 °C ([7]; aqueous medium): 2 to 4 days; T1/2 in vitro at 37 °C ([7]; tert-butylbenzene): 17 days
CCc1cc(-c2ccccn2)nc(-c2ccccn2)c1 [compound 22, 4′-ethyl terpyridine] | >8 | 240 | 230 | – | 22 | > 8 | > 8 | – | IC50 [4, 14]: 910 ± 60 nM; IC50 at 48 h ([5]; Vero cells): 5300 ± 4500 nM
CC(ON1C(C)(C)CC(O)CC1(C)C)c1cc(-c2ccccn2)nc(-c2ccccn2)c1 (racemic) [(R/S)-8F, 1-(1-([2,2′:6′,2′′-Terpyridin]-4′-yl)ethoxy)-2,2,6,6-tetramethylpiperidin-4-ol] | 5.0 ± 0.0 | 1300 | 1100 | – | 0.5 | – | 5 | – | IC50 ([2]; Plasmodium falciparum, F32, read-out: IC50 on the F32 strains, F32-TEM and F32-ART5 taken together): ~1000 nM; IC50 [4, 14]: 140 nM; IC50 at 48 h ([5]; Vero cells): 700 ± 400 nM; activation energy Ea ([8]; t-BuPh): 133.3 ^k kJ/mol; re-estimated homolysis rate constant kd at 120 °C ([8]; t-BuPh): 0.46 10^−3 s^−1; homolysis rate constant kd′ ([8]; t-BuPh, 111 °C): 1.9 10^−4s^−1; half-life ([8]; half-lifetime t1/2 at 37 °C, t-BuPh): 941 days; half-life ([8]; t1/2 at 37 °C): 913 days
CCOP(=O)(OCC)C(N(OC(C)c1cc(-c2ccccn2)nc(-c2ccccn2)c1)C(C)(C)CO)C(C)(C)C (stereo not drawn) [(RR/SS)-2F, Diethyl(1-((1-([2,2′:6′,2′′-terpyridin]-4′-yl)ethoxy)(1-hydroxy-2-methylpropan-2-yl)amino)-2,2-dimethylpropyl)phosphonate] | 2.5 ± 0.2 | – | – | – | 1 | – | – | 700 ± 300 | IC50 ([2]; read-out: P. falciparum Strains Mean IC50, F32-TEM, 48 h, ^1 n = 1, ^2 n = 2): 500 ± 100 nM; IC50 ([3]; read-out: P. falciparum Strains Mean IC50, F32-ART5, 48 h): 400 ± 100 nM; IC50 [4, 12]: 200 nM; activation energy Ea ([8]; MeOH/water 1:1 pH = 7.4): 118.8 kJ/mol; re-estimated homolysis rate constant kd at 120 °C ([8]; MeOH/water 1:1 pH = 7.4): 38.9 10^−3 s^−1; half-lifetime t1/2 at 37 °C ([8]; MeOH/water 1:1 pH = 7.4 (aqueous medium)): 3.5 days; homolysis rate constant kd′ ([8]; MeOH/water 1:1 pH = 7.4, 81 °C): 7.1 10^−4s^−1; activation energy Ea ([8]; t-BuPh): 118.9 kJ/mol; half-lifetime t1/2 at 37 °C ([8]; t-BuPh): 3.5 days; re-estimated homolysis rate constant kd at 120 °C ([8]; t-BuPh): 38.4 10^−3 s^−1; homolysis rate constant kd′ ([8]; t-BuPh, 81 °C): 7.0 10^−4s^−1
CC(ON1C(C)(C)CCCC1(C)C)c1ccncc1 (stereo not drawn) [9a] | 3.0 ± 0.0 | – | – | – | – | 3.0 ± 0.0 | 3 | 40000 ± 13000 | IC50 [2, 15]: 7500 nM; IC50 [3, 16]: 13000 nM; IC50 [4, 17]: 8000 ± 3000 nM
CCOP(=O)(OCC)C(N(OC(C)c1cc(-c2ccccn2)nc(-c2ccccn2)c1)C(C)(C)C(=O)O)C(C)(C)C (stereo not drawn) [(RS/SR)-4F, 2-((1-([2,2′:6′,2′′-Terpyridin]-4′-yl)ethoxy)(1-(diethoxyphosphoryl)-2,2-dimethylpropyl)amino)-2-methylpropanoic acid] | 5.2 ± 0.2 | 2900 | 4700 | 15000 ± 5000 | 4 | – | 7 | – | IC50 [4, 11]: 2900 nM
CCN(CC)CCCC(C)Nc1ccnc2cc(Cl)ccc12 (stereo not drawn) [Chloroquine, chloroquine, reference compound] | – | 60 ± 20 | 60 ± 30 | – | – | – | – | – | IC50 ([4]; Plasmodium falciparum, FCB1, read-out: IC50 on P. falciparum): 160 ± 36 nM; IC50 at 48 h [5]: 190000 ± 56000 nM
CCOP(=O)(OCC)C(N(OC(C)c1ccc2ccc3cccnc3c2n1)C(C)(C)CO)C(C)(C)C (stereo not drawn) [2J] | 1.0 ± 0.0 | – | – | – | – | 1.0 ± 0.0 | 1 | 17000 ± 6300 | IC50 [2, 15]: 5000 nM; IC50 [3, 16]: 4600 nM; IC50 [4, 17]: 2500 ± 1500 nM
CCOP(=O)(OCC)C(N(OC(C)c1cc(-c2ccccn2)nc(-c2ccccn2)c1)C(C)(C)C=O)C(C)(C)C (stereo not drawn) [(RS/SR)-7F, Diethyl(1-((1-([2,2′:6′,2′′-terpyridin]-4′-yl)ethoxy)(2-methyl-1-oxopropan-2-yl)amino)-2,2-dimethylpropyl)phosphonate] | 2.7 ± 0.1 | 1300 | 1400 | 900 ± 400 | 0.6 | – | 3 | – | –
